Results taken from patent publication US20250295652A1, “Inhibitors of Molluscum Contagiosum Infection and Methods Using the Same” (priority 2021, published 2025).

Test system: mD4-VV surrogate virus
Test: microbe, parasite or virus in culture
Assay type: cell-based, mD4/vaccinia hybrid virus
Settings: for EC50: Hybrid virus, BSC-1, read-out: mD4 EC50

| SMILES | EC50 [µM] | % @ 25 uM (mD4) [% @ 25 uM] |
| --- | --- | --- |
| Cc1c(C(N)=O)sc(NC(=O)N2CCN(c3ccccn3)CC2)c1C(=O)NCc1ccccc1 [Compound 131, 2-(4-(pyridin-2-yl)piperazine-1-carboxamido)-N3-benzyl-4-methylthiophene-3,5-dicarboxamide] | 31.8 |  |
| CCC(C(=O)Nc1sc(C(N)=O)c(C)c1C(=O)OC)c1ccc(OC)cc1 (stereo not shown) [Compound 97, Methyl 2-(2-(4-methoxyphenyl)butanamido)-5-carbamoyl-4-methylthiophene-3-carboxylate] |  | 37 |
| CCC(C(=O)Nc1sc(C(=O)NC(C)c2ccncc2)c(C)c1C(=O)OC)c1ccc(F)cc1 (stereo not shown) [Compound 186, methyl 2-(2-(4-fluorophenyl)butanamido)-4-methyl-5-((1-(pyridin-4-yl)ethyl)carbamoyl)thiophene-3-carboxylate] | 20 |  |
| CCC(C(=O)Nc1sc(C(N)=O)c(C)c1C(=O)OC)c1cccc(OC)c1 (stereo not shown) [Compound 96, Methyl 2-(2-(3-methoxyphenyl)butanamido)-5-carbamoyl-4-methylthiophene-3-carboxylate] |  | 56 |
| CCC(C(=O)Nc1scnc1C(=O)NCc1ccccc1)c1ccccc1 (stereo not shown) [Compound 162, 5-(2-Phenylbutanamido)-N-benzylthiazole-4-carboxamide] | 18.1 |  |
| CCC(C(=O)Nc1sc(C(N)=O)c(C)c1C(=O)OC)c1cccc(F)c1 (stereo not shown) [Compound 98, Methyl 2-(2-(3-fluorophenyl)butanamido)-5-carbamoyl-4-methylthiophene-3-carboxylate] | 18 |  |
| CCC(C(=O)Nc1sc(C(=O)OC(C)(C)C)c(C)c1C(=O)OC)c1ccc2c(c1)OCO2 (stereo not shown) [Compound 192, 2-tert-butyl 4-methyl 5-(2-(benzo[d][1,3]dioxol-5-yl)butanamido)-3-methylthiophene-2,4-dicarboxylate] | > 50 |  |
| CCC(C(=O)Nc1snnc1-c1ccccc1F)c1ccccc1 (stereo not shown) [Compound 153, N-[4-(2-Fluoro-phenyl)-[1,2,3]thiadiazol-5-yl]-2-phenyl-butyramide] | 10.2 |  |
| CCC(C(=O)Nc1sc(C(N)=O)c(C)c1C(=O)OC)c1ccc(C(F)(F)F)cc1 (stereo not shown) [Compound 190, methyl 5-carbamoyl-4-methyl-2-(2-(4-(trifluoromethyl)phenyl)butanamido)thiophene-3-carboxylate] | 4.8 |  |
| O=C(NCc1ccccc1)c1ccsc1NC(=O)N1CCN(c2ccccn2)CC1 [Compound 130, N-(3-(Benzylcarbamoyl)thiophen-2-yl)-4-(pyridin-2-yl)piperazine-1-carboxamide] | 32.8 |  |
| Cc1ccc(CNC(=O)c2nnsc2NC(=O)N2CCN(c3ccccn3)CC2)cc1 [Compound 124, 4-Pyridin-2-yl-piperazine-1-carboxylic acid [4-(4-methyl-benzylcarbamoyl)-[1,2,3]thiadiazol-5-yl]-amide] | 14.5 |  |
| CCC(C(=O)Nc1sc(C(=O)OC(C)(C)C)c(C)c1C(=O)OC)c1cc(F)cc(F)c1 (stereo not shown) [Compound 194, 2-tert-butyl 4-methyl 5-(2-(3,5-difluorophenyl)butanamido)-3-methylthiophene-2,4-dicarboxylate] | > 50 |  |
| O=C(NCc1ccccc1)c1nnsc1NC(=O)N1CCN(c2ccccc2)CC1 [Compound 123, 4-Phenyl-piperazine-1-carboxylic acid (4-benzylcarbamoyl-[1,2,3]thiadiazol-5-yl)-amide] |  | 44 |
| O=C(Nc1snnc1C(=O)NCc1ccc(Cl)cc1)Oc1ccccc1 [Compound 132, [4-(4-Chloro-benzylcarbamoyl)-[1,2,3]thiadiazol-5-yl]-carbamic acid phenyl ester] | 16.4 |  |
| CCC(C(=O)Nc1sc(C(N)=O)c(C)c1C(=O)OC)c1ccc(C#N)cc1 (stereo not shown) [Compound 197, Methyl 2-(2-(4-cyanophenyl)butanamido)-5-carbamoyl-4-methylthiophene-3-carboxylate] | 42 |  |
| O=C(CCCc1ccccn1)Nc1snnc1C(=O)NCc1ccc(Cl)cc1 [Compound 175, 5-(4-(Pyridin-2-yl)butanamido)-N-(4-chlorobenzyl)-1,2,3-thiadiazole-4-carboxamide] | 15.5 |  |
